Source: patent publication US10071074B2, “Thieno-indole moieties and methods of treating using the same” (NERVIANO MEDICAL SCIENCES S.R.L., priority 2012, dated 2018)
Structures can show the parent of a compound that is named as a salt.

System: A2780 human ovarian cancer cells
Test: In vitro cell proliferation assay (CellTiter-Glo)
Assay type: cell-based
Conditions: A2780 human ovarian cancer cells, 72 h treatment, CellTiter-Glo; read-out: IC50 value
Description: A2780 human ovarian and MCF7 human breast cancer cells (1250 cells/well) were seeded in white 384 well-plates in complete medium (RPMI1640 or EMEM plus 10% Fetal bovine serum) and treated with compounds dissolved in 0.1% DMSO, 24 h after seeding. The cells were incubated at 37° C. and 5% CO2 and after 72 h the plates were processed using CellTiter-Glo assay (Promega) following the manufacturer's instruction.
CellTiter-Glo is a homogenous method based on the quantification of the ATP present, an indicator of metabolitically active cells. ATP is quantified using a system based on luciferase and D-luciferin resulting into light generation. The luminescent signal is proportional to the number of cells present in culture.
Briefly, 25 μL/well of reagent solution are added to each well and after 5 minutes shaking microplates are read by a luminometer. The luminescent signal is proportional to the number of cells present in culture.

`Cc1csc2c1[C@@]13C[C@@H]1CN(C(=O)c1ccc4c(NC(=O)c5ccc6cc[nH]c6c5)c[nH]c4c1)C3=CC2=O` [Compd. 5, N-(6-{[(3bR,4aS)-3-methyl-8-oxo-4a,5-dihydro-4H-cyclopropa[c]thieno[3,2-e]indol-6(8H)-yl]carbonyl}-1H-indol-3-yl)-1H-indole-6-carboxamide] and `Cc1csc2c(O)cc3c(c12)[C@H](CCl)CN3C(=O)c1ccc2c(NC(=O)c3ccc4cc[nH]c4c3)c[nH]c2c1` [Compd. 1] cannot be ordered by IC50: less than 50 nM for the first, less than 50 nM for the second.

`Cc1csc2c1[C@]13C[C@H]1CN(C(=O)Nc1cc(C(=O)Nc4cc(C(=O)Nc5cc(C(=O)NCCC(N)=O)n(C)c5)n(C)c4)n(C)c1)C3=CC2=O` [compound 9, (3bS,4aR)-N-(5-{[5-({5-[(3-amino-3-oxopropyl)carbamoyl]-1-methyl-1H-pyrrol-3-yl}carbamoyl)-1-methyl-1H-pyrrol-3-yl]carbamoyl}-1-methyl-1H-pyrrol-3-yl)-3-methyl-8-oxo-4a,5-dihydro-4H-cyclopropa[c]thieno[3,2-e]indole-6(8H)-carboxamide] and `Cc1csc2c1[C@]13C[C@H]1CN(C(=O)c1cc(NC(=O)c4cc(NC(=O)c5cc([N+](=O)[O-])cn5C)cn4C)cn1C)C3=CC2=O` [compound 6, 1-methyl-N-(1-methyl-5-{[(3bS,4aR)-3-methyl-8-oxo-4a,5-dihydro-4H-cyclopropa[c]thieno[3,2-e]indol-6(8H)-yl]carbonyl}-1H-pyrrol-3-yl)-4-4{[(1-methyl-4-nitro-1H-pyrrol-2-yl)carbonyl]amino}-1H-pyrrole-2-carboxamide] cannot be ordered by IC50: less than 50 nM for the first, less than 50 nM for the second.

`Cc1csc2c(O)cc3c(c12)[C@H](CCl)CN3C(=O)c1cc2cc(NC(=O)c3cc4cc(OCCN5CCCC5)ccc4[nH]3)ccc2[nH]1` [compound 17, N-(2-{[(8S)-8-(chloromethyl)-4-hydroxy-1-methyl-7,8-dihydro-6H-thieno[3,2-e]indol-6-yl]carbonyl}-1H-indol-5-yl)-5-[2-(pyrrolidin-1-yl)ethoxy]-1H-indole-2-carboxamide] and `Cc1csc2c(O)cc3c(c12)[C@H](CCl)CN3C(=O)c1cc2cc(OCCN3CCCC3)ccc2[nH]1` [Compd. 37, [(8S)-8-(chloromethyl)-4-hydroxy-1-methyl-7,8-dihydro-6H-thieno[3,2-e]indol-6-yl]{5-[2-(pyrrolidin-1-yl)ethoxy]-1H-indol-2-yl}methanone hydrochloride] cannot be ordered by IC50: less than 0.1 nM for the first, less than 0.01 nM for the second.

`Cc1csc2c1[C@@]13C[C@@H]1CN(C(=O)c1cc4cc(NC(=O)c5cc6cc(NC(=O)OC(C)(C)C)ccc6[nH]5)ccc4[nH]1)C3=CC2=O` [compound 20, tert-butyl {2-[(2-{[(3bR,4aS)-3-methyl-8-oxo-4a,5-dihydro-4H-cyclopropa[c]thieno[3,2-e]indol-6(8H)-yl]carbonyl}-1H-indol-5-yl)carbamoyl]-1H-indol-5-yl}carbamate] and `Cc1csc2c(O)cc3c(c12)[C@H](CCl)CN3C(=O)c1cc2cc(NC(=O)c3cc4cc(NC(=O)OC(C)(C)C)ccc4[nH]3)ccc2[nH]1` [Compd. 18] cannot be ordered by IC50: less than 0.1 nM for the first, less than 0.01 nM for the second.

`Cc1csc2c1[C@]13C[C@H]1CN(C(=O)/C=C/c1c[nH]c4ncccc14)C3=CC2=O` [Compd. 7, (3bS,4aR)-3-methyl-6-[(2E)-3-(1H-pyrrolo[2,3-b]pyridin-3-yl)prop-2-enoyl]-4,4a,5,6-tetrahydro-8H-cyclopropa[c]thieno[3,2-e]indo-8-one] and `Cc1csc2c1[C@@]13C[C@@H]1CN(C(=O)/C=C/c1c[nH]c4ncccc14)C3=CC2=O` [compound 8, (3bR,4aS)-3-methyl-6-[(2E)-3-(1H-pyrrolo[2,3-b]pyridin-3-yl)prop-2-enoyl]-4,4a,5,6-tetrahydro-8H-cyclopropa[c]thieno[3,2-e]indol-8-one] cannot be ordered by IC50: less than 50 nM for the first, less than 0.01 nM for the second.

Same assay, conditions: Homo sapiens, A2780, 72 h, read-out: IC50 value

`Cc1csc2c(OC(=O)N3CCN(C)CC3)cc3c(c12)[C@H](CCl)CN3C(=O)c1cc2cc(NC(=O)c3cc4cc(N)ccc4[nH]3)ccc2[nH]1` [compound 23, (8S)-6-[(5-{[(5-amino-1H-indol-2-yl)carbonyl]amino}-1H-indo-2-yl)carbonyl]-8-(chloromethyl)-1-methyl-7,8-dihydro-6H-thieno[3,2-e]indol-4-yl 4-methylpiperazine-1-carboxylate hydrochloride] and `Cc1csc2c(OC(=O)N3CCN(C)CC3)cc3c(c12)[C@H](CCl)CN3C(=O)c1cc2cc(NC(=O)c3cc4cc(NC(=O)OC(C)(C)C)ccc4[nH]3)ccc2[nH]1` [Compd. 22, (8S)-6-({5-[({5-[(tert-butoxycarbonyl)amino]-1H-indol-2-yl}carbonyl)amino]-1H-indol-2-yl}carbonyl)-8-(chloromethyl)-1-methyl-7,8-dihydro-6H-thieno[3,2-e]indol-4-yl 4-methylpiperazine-1-carboxylate] cannot be ordered by IC50: less than 50 nM for the first, less than 0.1 nM for the second.

Target: cathepsin B (Homo sapiens, UniProt P07858)
Test: Release of a drug moiety from a conjugate in presence of cathepsin
Assay type: biochemical
Conditions: 0.2 unit cathepsin B, sodium acetate buffer pH 5.5, 1 mM Cys, 2 hours at 40° C., HPLC ESI-MS analysis
Description: The conjugate A1 was incubated with 0.2 unit of cathepsin B in sodium acetate buffer pH 5.5 and 1 mM Cys for 2 hours at 40° C.
Disappearance of the conjugate A1 and release of the corresponding compound of formula (II), i.e. compd. 37, as well as of its precursor A3, confirms the breaking of the Z peptidic linker of the conjugate.

For `Cc1csc2c(OC(=O)N(C)CCN(C)C(=O)OCc3ccc(NC(=O)[C@H](CCCNC(N)=O)NC(=O)[C@@H](NC(=O)CCCCCN4C(=O)CC(SC[C@H](N)C(=O)O)C4=O)C(C)C)cc3)cc3c(c12)[C@H](CCl)CN3C(=O)c1cc2cc(OCCN3CCCC3)ccc2[nH]1` (stereo partly shown) [conjugate A1], the “release of the compound of formula (II) (compd. 37) from the conjugate” value was “Complete release”.
